PubChem BioAssay AID248 (DTP/NCI, 2004)
Toxic doses and inconclusive results are not listed. Cut-off read from the data, not from the text of the source: active = T/C of 150% or more; inactive = T/C below 125%.

Tested on: L1210 leukemia ip in BDF1 mice, survival T/C
Assay: NCI In Vivo Anticancer Drug Screen. Data for tumor model L1210 Leukemia (intraperitoneal) in B6D2F1 (BDF1) mice
Conditions: endpoint: mean survival time, higher = longer survival
Method in brief: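 Ratio derived from survival: compound-dosed mice over vehicle-dosed mice, all bearing a transplantable tumor.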

[1] = dose: 100.0 mg/kg/injection, schedule: Q01DX009 (ip), vehicle: Klucel (hydroxypropylcellulose) (HPC)
[2] = dose: 200.0 mg/kg/injection, schedule: Q01DX009 (ip), vehicle: Klucel (hydroxypropylcellulose) (HPC)
[3] = dose: 400.0 mg/kg/injection, schedule: Q01DX009 (ip), vehicle: Klucel (hydroxypropylcellulose) (HPC)

Measured: T/C

S=c1[nH]c(-c2ccccc2)cs1
inactive: dose: 50.0 mg/kg/injection, schedule: Q01DX001 (ip), vehicle: other 90 % of control | dose: 100.0 mg/kg/injection, schedule: Q01DX001 (ip), vehicle: Klucel (hydroxypropylcellulose) (HPC) 96 % of control | dose: 100.0 mg/kg/injection, schedule: Q01DX001 (ip), vehicle: other 96 % of control | [1] 96 % of control | dose: 200.0 mg/kg/injection, schedule: Q01DX001 (ip), vehicle: Klucel (hydroxypropylcellulose) (HPC) 95 % of control | dose: 200.0 mg/kg/injection, schedule: Q01DX001 (ip), vehicle: other 100 % of control | [2] 96 % of control | dose: 400.0 mg/kg/injection, schedule: Q01DX001 (ip), vehicle: Klucel (hydroxypropylcellulose) (HPC) 95 % of control | dose: 400.0 mg/kg/injection, schedule: Q01DX001 (ip), vehicle: other 96 % of control | [3] 97 % of control

Cc1cc(NC(=O)Nc2cccc3ccccc23)no1
inactive: [1] 104 % of control | dose: 100.0 mg/kg/injection, schedule: Q04DX002 (ip), vehicle: Klucel (hydroxypropylcellulose) (HPC) 89 % of control | [2] 98 % of control | dose: 200.0 mg/kg/injection, schedule: Q04DX002 (ip), vehicle: Klucel (hydroxypropylcellulose) (HPC) 102 % of control | [3] 98 % of control | dose: 400.0 mg/kg/injection, schedule: Q04DX002 (ip), vehicle: Klucel (hydroxypropylcellulose) (HPC) 89 % of control
